From the supplement of paper PMC10307832

Key:
Test in all cases: relative viability (nuclei count vs DMSO), 5 days (fraction); higher = more cells survive
[1] = compound: C[C@@]1(C(=O)Nc2ccc(F)nc2)CCCN1c1nc(Nc2cc(C3CC3)n[nH]2)c2cccn2n1 + Cc1nc(Nc2ncc(C(=O)Nc3c(C)cccc3Cl)s2)cc(N2CCN(CCO)CC2)n1 [Dasatinib] (partner 0.075 µM)
Method in brief: (§1)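 Cells from lung cancer lines were seeded into 1536-well plates and, one day later, dosed by pin tool. Treatments were either a single drug or a fixed dose of an anchor drug with five library-drug doses (not always all listed) in √10 steps. After 5 days, nuclei were stained in a one-step fixation (final 0.05% Triton X-100, 1% formaldehyde, 1 ug/ml Hoechst) and counted on 4× images, and relative viability is the treated-to-vehicle nuclei ratio, as the median of duplicate plates.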

[2] = compound: C[C@@]1(C(=O)Nc2ccc(F)nc2)CCCN1c1nc(Nc2cc(C3CC3)n[nH]2)c2cccn2n1 + CCNC(=O)c1noc(-c2cc(C(C)C)c(O)cc2O)c1-c1ccc(CN2CCOCC2)cc1 [Luminespib] (partner 0.01 µM)
Method in brief: as §1

Motesanib + Decitabine = compound: CC1(C)CNc2cc(NC(=O)c3cccnc3NCc3ccncc3)ccc21 [Motesanib] + Nc1ncn([C@H]2C[C@H](O)[C@@H](CO)O2)c(=O)n1 [Decitabine] (partner 2 µM)
Method in brief: as §1

Motesanib + Bortezomib = compound: CC1(C)CNc2cc(NC(=O)c3cccnc3NCc3ccncc3)ccc21 [Motesanib] + CC(C)C[C@H](NC(=O)[C@H](Cc1ccccc1)NC(=O)c1cnccn1)B(O)O [Bortezomib] (partner 0.002 µM)
Method in brief: as §1

Cell Line | relative viability ([1]; first compound 0.04 µM) | relative viability ([1]; first compound 0.1265 µM) | relative viability ([1]; first compound 0.4 µM) | relative viability ([1]; first compound 1.265 µM) | relative viability ([2]; first compound 0.04 µM) | relative viability ([2]; first compound 0.1265 µM) | relative viability ([2]; first compound 0.4 µM) | relative viability ([2]; first compound 1.265 µM) | relative viability (Motesanib + Decitabine; first compound 0.01 µM) | relative viability (Motesanib + Decitabine; first compound 0.03162 µM) | relative viability (Motesanib + Decitabine; first compound 0.1 µM) | relative viability (Motesanib + Decitabine; first compound 0.3162 µM) | relative viability (Motesanib + Decitabine; first compound 1 µM) | relative viability (Motesanib + Bortezomib; first compound 0.01 µM) | relative viability (Motesanib + Bortezomib; first compound 0.03162 µM) | relative viability (Motesanib + Bortezomib; first compound 0.1 µM) | relative viability (Motesanib + Bortezomib; first compound 0.3162 µM) | relative viability (Motesanib + Bortezomib; first compound 1 µM)
201T | 0.326 | 0.29 | 0.301 | 0.324 | 0.878 | 0.84 | 0.799 | 1.02 | 0.84 | 0.864 | 0.925 | 0.939 | 0.93 | 1.05 | 1.07 | 1.08 | 1.17 | 1.08
A549 |  |  |  |  |  |  |  |  | 0.261 | 0.216 | 0.327 | 0.278 | 0.338 |  |  |  |  | 
A-427 | 0.632 | 0.557 | 0.617 | 0.453 | 1.03 | 0.957 | 0.639 | 0.881 | 0.563 | 0.554 | 0.544 | 0.568 | 0.556 | 1.03 | 0.956 | 0.973 | 0.969 | 1.05
ABC-1 | 0.51 | 0.395 | 0.366 | 0.204 | 0.63 | 0.519 | 0.244 | 0.308 | 0.825 | 1.03 | 1.02 | 0.931 | 1.26 | 0.282 | 0.341 | 0.221 | 0.284 | 0.292
BEN | 0.32 | 0.382 | 0.329 | 0.271 | 0.381 | 0.487 | 0.641 | 0.325 | 0.599 | 0.788 | 0.779 | 0.693 | 0.867 | 0.696 | 0.793 | 0.869 | 0.861 | 0.935
CAL-12T | 0.239 | 0.146 | 0.101 | 0.0918 | 0.446 | 0.391 | 0.487 | 0.116 |  |  |  |  |  |  |  | 0.906 | 1.16 | 0.926
COR-L23 | 0.433 | 0.334 | 0.214 | 0.219 | 0.714 | 0.65 | 0.449 | 0.45 | 0.477 | 0.456 | 0.491 | 0.468 | 0.519 | 1.01 | 0.974 | 1.04 | 1.11 | 0.914
COR-L 105 | 0.3 | 0.208 | 0.185 | 0.18 | 0.672 | 0.62 | 0.624 | 0.685 | 0.643 | 0.683 | 0.72 | 0.739 | 0.705 | 0.873 | 1.01 | 0.939 | 1.02 | 0.785
Calu-6 |  |  |  |  |  |  |  |  |  |  |  |  |  | 0.896 | 1.04 | 0.926 | 1.05 | 0.889
ChaGo-K-1 | 0.505 | 0.486 | 0.522 | 0.443 | 0.519 | 0.503 | 0.455 | 0.613 | 0.506 | 0.556 | 0.544 | 0.661 | 0.607 |  | 0.666 | 0.841 | 0.976 | 1.11
EBC-1 |  |  |  |  |  |  |  |  |  |  |  |  |  | 0.637 | 0.56 | 0.557 | 0.537 | 0.559
EKVX | 0.439 | 0.4 | 0.32 | 0.294 | 0.804 | 0.67 | 0.683 | 0.935 | 0.385 | 0.404 | 0.427 | 0.401 | 0.32 | 1.1 | 1.19 | 1.04 | 1.14 | 1.06
EMC-BAC-2 | 0.242 | 0.212 | 0.136 | 0.167 | 0.863 | 0.941 | 0.713 | 0.857 | 0.956 | 0.979 | 1.01 | 0.984 | 1.04 | 1.03 | 1.01 | 1.02 | 1.07 | 1.08
EPLC-272H | 0.275 |  | 0.157 | 0.084 | 0.214 |  | 0.187 | 0.272 | 0.37 | 0.371 | 0.387 | 0.335 | 0.402 | 0.858 | 0.832 | 0.925 | 0.601 | 1
H3255 | 0.36 | 0.361 | 0.282 | 0.235 | 1.02 | 0.982 | 0.89 | 0.811 | 0.561 | 0.651 | 0.605 | 0.623 | 0.678 | 0.714 | 0.733 | 0.637 | 0.936 | 0.799
HARA | 0.297 | 0.203 | 0.188 | 0.163 | 0.72 | 0.73 | 0.585 | 0.881 | 0.492 | 0.878 | 0.905 | 1.06 | 1.05 | 1.06 | 1.19 | 1.21 | 1.11 | 1.11
HCC-15 | 0.458 | 0.233 | 0.271 | 0.297 | 0.481 | 0.364 | 0.55 | 0.417 | 0.592 | 0.621 | 0.648 | 0.81 | 0.69 | 0.97 | 0.968 | 0.886 | 1.16 | 1.07
